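Results reflect a 48-hour exposure of cells in 96-well plates to compound at five concentrations. The concentration for 50% growth inhibition is given as GI50.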 Activity calls are given as the source filed them. No stated cut-off is given here; in the data, active = GI50 up to about 1.1 µM and inactive = higher.
How the values were obtained:
Test in all cases: NCI-60 cell line screen, 48 h
SNB-78 = tested on: SNB-78
DMS-114 = tested on: DMS-114
LXFL 529 = tested on: LXFL 529
XF498 = tested on: XF498
DLD-1 = tested on: DLD-1
RXF 631 = tested on: RXF 631
KM-20L2 = tested on: KM-20L2
M19-MEL = tested on: M19-MEL
HOP-18 = tested on: HOP-18

Compound | GI50 (SNB-78) | GI50 (DMS-114) | GI50 (LXFL 529) | GI50 (XF498) | GI50 (DLD-1) | GI50 (RXF 631) | GI50 (KM-20L2) | GI50 (M19-MEL) | GI50 (HOP-18)
O=C1CCC2(c3ccccc3)Nc3cc(Cl)ccc3N12 (stereo not drawn) | 31.7 µM (inactive) | 21.4 µM (inactive) | 31.4 µM (inactive) | 19.7 µM (inactive) | 34.9 µM (inactive) | 47.5 µM (inactive) | 30 µM (inactive) | 30.8 µM (inactive) | –
O=C1C=C/C(=N\c2ccc3c(c2)C(Br)c2ccccc2-3)O1 (stereo not drawn) | > 100 µM (inactive) | 92.7 µM (inactive) | 28.8 µM (inactive) | – | > 100 µM (inactive) | – | – | > 100 µM (inactive) | –
CN(C)CC1CCCC(CN(C)C)C1OC(=O)c1ccccc1 (stereo not drawn) | > 100 µM (inactive) | – | > 100 µM (inactive) | – | > 100 µM (inactive) | – | > 100 µM (inactive) | > 100 µM (inactive) | > 100 µM (inactive)
COC(=O)N/N=c1\cc(C(=O)Nc2ccc(C)c(C)c2)oc2cc(O)ccc12 | > 100 µM (inactive) | > 100 µM (inactive) | > 100 µM (inactive) | > 100 µM (inactive) | > 100 µM (inactive) | > 100 µM (inactive) | > 100 µM (inactive) | > 100 µM (inactive) | > 100 µM (inactive)
C/C(CC(=O)Nc1cccc(Cl)c1C)=N\N=C(N)N | > 100 µM (inactive) | > 100 µM (inactive) | > 100 µM (inactive) | > 100 µM (inactive) | > 100 µM (inactive) | – | 42.6 µM (inactive) | > 100 µM (inactive) | > 100 µM (inactive)
CC12CC3CC(C)(C1)CC(N=[N+]=[N-])(C3)C2 | > 100 µM (inactive) | > 100 µM (inactive) | > 100 µM (inactive) | > 100 µM (inactive) | > 100 µM (inactive) | – | – | > 100 µM (inactive) | > 100 µM (inactive)
C[N+](C)(C)CC1CCCC(C[N+](C)(C)C)C1O (stereo not drawn) | > 100 µM (inactive) | > 100 µM (inactive) | > 100 µM (inactive) | – | > 100 µM (inactive) | > 100 µM (inactive) | > 100 µM (inactive) | > 100 µM (inactive) | > 100 µM (inactive)
COc1cc2c(cc1OC)C1(c3ccc(Cl)cc3)ON=C(c3ccccc3)N1CS2 (stereo not drawn) | 4.56 µM (inactive) | > 100 µM (inactive) | > 100 µM (inactive) | – | > 100 µM (inactive) | > 100 µM (inactive) | > 100 µM (inactive) | > 100 µM (inactive) | > 100 µM (inactive)
CC(C)(C)c1cc(CCCCCCCC2(CCCCCCCc3cc(C(C)(C)C)cc(C(C)(C)C)c3)OC(COCCOCCCCCC#N)C(COCCOCCCCCC#N)O2)cc(C(C)(C)C)c1 (stereo not drawn) | > 100 µM (inactive) | > 100 µM (inactive) | > 100 µM (inactive) | – | > 100 µM (inactive) | – | > 100 µM (inactive) | > 100 µM (inactive) | > 100 µM (inactive)
O=C(NC1CCCCCC1)C1C(=O)N(C2CCCCCC2)C(=O)/C1=N\O (stereo not drawn) | 34.3 µM (inactive) | 33 µM (inactive) | 31.8 µM (inactive) | – | 44.1 µM (inactive) | – | 23.1 µM (inactive) | 28.2 µM (inactive) | 48.9 µM (inactive)
ON/N=C/c1cc2c(cc1Br)OCO2 | – | 251 µM (inactive) | > 386 µM (inactive) | – | > 386 µM (inactive) | > 386 µM (inactive) | > 386 µM (inactive) | > 386 µM (inactive) | > 386 µM (inactive)
CCn1c2c(c3ccccc31)C(c1ccccc1)CC1C(=O)N(c3ccccc3)C(=O)C21 (stereo not drawn) | 36.8 µM (inactive) | 89.5 µM (inactive) | 42.8 µM (inactive) | 15.8 µM (inactive) | 74 µM (inactive) | – | > 100 µM (inactive) | > 100 µM (inactive) | –
O=[N+]([O-])c1cc(/C=N\NS(=O)(=O)c2ccc(Cl)cc2)c(O)c([N+](=O)[O-])c1 | 38.1 µM (inactive) | 31.9 µM (inactive) | 30.6 µM (inactive) | – | 72.8 µM (inactive) | 28.6 µM (inactive) | 28.3 µM (inactive) | 48.3 µM (inactive) | 42.3 µM (inactive)
CN1CCOC(C(NC(=O)c2ccccc2)c2ccccc2)C1=O (stereo not drawn) | > 100 µM (inactive) | – | – | – | > 100 µM (inactive) | – | > 100 µM (inactive) | > 100 µM (inactive) | > 100 µM (inactive)
CN1C(c2ccccc2)CC(=NO)CC1c1ccccc1 (stereo not drawn) | > 100 µM (inactive) | 25.7 µM (inactive) | 52.8 µM (inactive) | – | 41.8 µM (inactive) | 48.8 µM (inactive) | 54.6 µM (inactive) | 37.5 µM (inactive) | –
O=C(C[n+]1ccccc1)NNC(=O)/C(=C/c1ccc2c(c1)OCO2)NC(=O)c1ccccc1 | > 56.8 µM (inactive) | 25.5 µM (inactive) | 38.7 µM (inactive) | > 41.2 µM (inactive) | 38.2 µM (inactive) | – | > 73.3 µM (inactive) | 41.7 µM (inactive) | 34.9 µM (inactive)
O=C(N/C(=C\c1c(O)ccc2ccccc12)c1nc2ccccc2[nH]1)c1ccccc1 | > 100 µM (inactive) | > 100 µM (inactive) | > 100 µM (inactive) | > 100 µM (inactive) | > 100 µM (inactive) | > 100 µM (inactive) | > 100 µM (inactive) | > 100 µM (inactive) | > 100 µM (inactive)
C#CC1(O)CCC2[C@@H]3CCc4cc(Oc5nc(F)nc(-c6c7ccccc7c(SCC)n6CCC)n5)ccc4C3CC[C@@]21C (stereo partly drawn) | > 100 µM (inactive) | 31.3 µM (inactive) | 38.5 µM (inactive) | > 100 µM (inactive) | > 100 µM (inactive) | > 100 µM (inactive) | > 100 µM (inactive) | > 100 µM (inactive) | 24.2 µM (inactive)
COc1ccccc1/C=C1\C(=O)N(C(=O)c2ccc(NC(C)=O)cc2)N=C1C | > 100 µM (inactive) | > 100 µM (inactive) | – | > 100 µM (inactive) | > 100 µM (inactive) | – | – | > 100 µM (inactive) | –
Cc1cc(Br)cc(C)c1NC(=O)C(=O)C(C(=O)c1ccc(Cl)c(Cl)c1)C1OC(=O)c2ccccc21 (stereo not drawn) | 53.3 µM (inactive) | 24.3 µM (inactive) | 59.3 µM (inactive) | – | 12.4 µM (inactive) | 29.6 µM (inactive) | 34.6 µM (inactive) | 75.2 µM (inactive) | –
N#CC1(C#N)C=CC(=C2OCC3CCCN23)C=C1 (stereo not drawn) | > 100 µM (inactive) | > 100 µM (inactive) | > 100 µM (inactive) | – | > 100 µM (inactive) | – | > 100 µM (inactive) | > 100 µM (inactive) | > 100 µM (inactive)
Cc1nnc(N/N=C2\C(=O)Nc3ccccc32)n1N | > 100 µM (inactive) | > 100 µM (inactive) | > 100 µM (inactive) | > 100 µM (inactive) | > 100 µM (inactive) | > 100 µM (inactive) | > 100 µM (inactive) | > 100 µM (inactive) | > 100 µM (inactive)
CN(C(=O)C12C3C4C1C1C2C3C41C#N)C(C)(C)C (stereo not drawn) | > 100 µM (inactive) | > 100 µM (inactive) | > 100 µM (inactive) | – | > 100 µM (inactive) | > 100 µM (inactive) | > 100 µM (inactive) | > 100 µM (inactive) | –
CC1=NN(C(=O)c2ccccc2O)C(=O)/C1=C/c1ccco1 | 22.6 µM (inactive) | 0.604 µM (active) | 1.54 µM (inactive) | 25.8 µM (inactive) | 0.502 µM (active) | – | 15 µM (inactive) | 1.88 µM (inactive) | –
NCP(=O)(O)OCC(=O)O | > 100 µM (inactive) | > 100 µM (inactive) | > 100 µM (inactive) | > 100 µM (inactive) | > 100 µM (inactive) | – | – | – | > 100 µM (inactive)
C[C@@]1(CBr)C[C@@](C)(/C=C/Cl)[C@@H](Cl)C[C@H]1Cl | 2.94 µM (inactive) | 12.7 µM (inactive) | 10 µM (inactive) | 11.7 µM (inactive) | 13.6 µM (inactive) | 11.9 µM (inactive) | 11.6 µM (inactive) | 13.1 µM (inactive) | 13.5 µM (inactive)
COc1ccc(/C=C2\CNC/C(=C\c3ccc(OC)cc3)C2=O)cc1 | 28.1 µM (inactive) | 45.8 µM (inactive) | 21.8 µM (inactive) | 63.2 µM (inactive) | 21 µM (inactive) | – | 24.3 µM (inactive) | > 100 µM (inactive) | > 100 µM (inactive)

From ChEMBL document CHEMBL1201862, “PubChem BioAssay data set” (2004)
